Reference: patent US20260091015A1, “TREATING IRON DEFICIENCY WITH FERRIC CARBOXYMALTOSE” (PHARMACOSMOS HOLDING A/S, priority 2018, published 2026)

Legend:
[1] = system: vitamin D (25, 1,25, 24,25); test: Vitamin D (25, 1,25, 24,25) levels by LC-MS/MS, trials IDA-04/IDA-05; type: in vivo, human; conditions: IDA-04 and IDA-05 combined
Method: The term “serum vitamin D” as used herein refers to the level of vitamin Ds, in particular 25-hydroxyvitamin D, 1,25-dihydroxyvitamin D, and 24,25-dihydroxyvitamin D, in blood serum as measured by Liquid Chromatography and Tandem Mass Spectrometry (LC-MS/MS).
The trial was a randomized, open-label, comparative trial. […]
The following safety laboratory assessments were analysed: • S-phosphate: inorganic phosphorous forms an ammonium phosphomolybdate complex having the formula (NH4)3[PO4](MoO3)12 with ammonium molybdate in the presence of sulfuric acid. The complex was determined photometrically in the ultraviolet region (340 nm) of the spectrum using the Roche Modular and Cobas Analyzer. • iFGF23 and cFGF23: the human intact FGF23 was measured by the 2nd generation Elisa kit manufactured by Immonotropics, Inc, San Clemente, CA. […] The human C-terminal FGF23 was measured by the Elisa kit manufactured by Immonotropics, Inc, San Clemente, CA. […] After evaporation under nitrogen, the residue was reconstituted and analyzed using Liquid Chromatography (LC) with Tandem Mass Spectrometric detection (MS/MS). […]

[2] = Respiratory muscles strength (MIP and MEP), trials IDA-04/IDA-05; type: in vivo, human; conditions: relative to the comparator IV iron treatment
Method: The trial was a randomized, open-label, comparative trial. Subjects with Iron Deficiency Anaemia (IDA) were randomized 1:1 to one treatment course of one of the following treatments: • Group A: iron isomaltoside 1000 (Monofer®, Pharmacosmos, Holbok, Denmark, termed iron isomaltoside in the following), 1000 mg at baseline • Group B: ferric carboxymaltose (Ferinject®/Injectafer®, Vifor Inc, Switzerland), 750 mg at baseline and day 7, cumulative dose: 1500 mg […]
The measurements of MIP and MEP provided a non-invasive clinical method for evaluating the strength of respiratory muscles, and it was the most widely used test to assess muscle pressures [ATS/ERS statement, 2002]. […] MIP and MEP were measured by MicroRPM (CareFusion Germany 234 GmbH, Hoechberg, Germany). […]

## ferric carboxymaltose [FCM]
[1]
  1,25-dihydroxyvitamin D: decrease
  24,25-dihydroxyvitamin D: increase
[2]
  respiratory muscle strength (maximal inspiratory and/or expiratory pressure): reduced
